From patent US20090215807A1, “Novel Diazaspiroalkanes and Their Use for Treatment of CCR8 Mediated Diseases” (priority 2005, published 2009) come the findings set out here.

SMILES strings stand for the structures.

The target in series [1] is T1, human recombinant chemokine CCR8 receptor (Homo sapiens, UniProt P51685).
T1 construct: purchased Euroscreen ES-136-M; host or cells: CHO-K1 cells (membranes)
As to the kind of experiment: CCL1 SPA binding assay. Particulars: inhibition of 125I CCL1 binding to CCR8 membranes from transfected CHO-K1 cells. The protocol:
1 μl of DMSO was added to the blank control wells and 1 μl unlabeled CCL1 (300 nM) was added to background control wells. 50 μl of the SPA bead-membrane mixture was added into each well. […] Plates were then incubated at RT with shaking (700 rpm) for 90 minutes followed by 30 minutes at RT without shaking. The plate was read in a Wallac MicroBeta counter for 2 minutes/well.

Series [2] can be described thus: Human microsomal stability assay. The class given is in vitro ADME. Particulars: human microsomes (Xenotech); human microsomes 1 mg protein/mL, compound 2.5 μM, NADPH 2 mM, pH 7.4, 37° C.; read-out: Intrinsic clearance. On the procedure:
Human Microsomal Stability Assay
Samples at four time-points (0, 5, 15 and 30 minutes) are withdrawn and the enzymatic reaction is terminated by protein precipitation with 1% acetic acid in acetonitrile. The incubations are performed on a thermostated plate (37° C.) placed on a Tecan worktable, and all liquid handling was performed robotically. After centrifugation of the samples, the supernatants are pooled in sets of four before they are analysed by liquid chromatography with tandem mass spectrometry detection (LC/MS/MS) using multiple reaction monitoring (MRM). Data are presented as intrinsic Clearance (CLint), μl/min/mg protein, calculated from the initial linear part of the compound disappearance curve.

T1 sequence (P51685 whole entry): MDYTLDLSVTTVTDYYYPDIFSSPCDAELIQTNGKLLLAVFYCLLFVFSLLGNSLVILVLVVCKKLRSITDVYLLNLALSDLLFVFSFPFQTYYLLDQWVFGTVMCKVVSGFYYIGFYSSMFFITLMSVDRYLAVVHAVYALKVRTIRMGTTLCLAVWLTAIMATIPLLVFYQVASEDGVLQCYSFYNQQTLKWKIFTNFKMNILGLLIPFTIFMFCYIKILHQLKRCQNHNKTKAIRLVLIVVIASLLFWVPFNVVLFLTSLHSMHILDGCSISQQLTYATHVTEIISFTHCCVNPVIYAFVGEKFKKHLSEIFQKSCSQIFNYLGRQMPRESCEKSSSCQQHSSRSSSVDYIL

Take `CC(C)COc1ccccc1CN1CCC2(CC1)CCN(C(=O)c1cc[n+]([O-])cc1)CC2` [A, 3-(2-isobutoxybenzyl)-9-(1-oxidoisonicotinoyl)-3,9-diazaspiro[5.5]undecane, reference compound]: the concentration for half-maximal inhibition (IC50) in series [1] was determined as 2670 nM.

As for `CC(C)COc1ccccc1CN1CCC2(CC1)CCN(C(=O)c1ccc[n+]([O-])c1)CC2` [B, 3-(2-isobutoxybenzyl)-9-[(1-oxidopyridin-3-yl)carbonyl]-3,9-diazaspiro[5.5]undecane, reference compound], the IC50 in series [1] was 3050 nM.

Turning to `O=C(c1cccc[n+]1[O-])N1CCC2(CCN(Cc3cccc(Oc4ccccc4)c3)CC2)CC1` [Example 1, 3-[(1-oxidopyridin-2-yl)carbonyl]-9-(3-phenoxybenzyl)-3,9-diazaspiro[5.5]undecane], the 50% inhibitory concentration (IC50) in series [1] turned out to be 193 nM. The microsomal CLint at 2.5 μM in series [2] was under 10 µL/min/mg.

On to `O=C(c1cc[n+]([O-])cc1)N1CCC2(CCN(Cc3cccc(Oc4ccccc4)c3)CC2)CC1` [Example 2, 3-(1-oxidoisonicotinoyl)-9-(3-phenoxybenzyl)-3,9-diazaspiro[5.5]undecane], for which the IC50 in series [1] came to 305 nM. In addition, the microsomal CLint at 2.5 μM in series [2] was under 10 µL/min/mg.

Take `COc1ccccc1Oc1ccccc1CN1CCC2(CC1)CCN(C(=O)c1cccc[n+]1[O-])CC2` [Example 3, 3-[2-(2-methoxyphenoxy)benzyl]-9-[(1-oxidopyridin-2-yl)carbonyl]-3,9-diazaspiro[5.5]undecane]: the concentration for half-maximal inhibition (IC50) in series [1] is 87 nM. For the same molecule, the microsomal CLint at 2.5 μM in series [2] is under 10 µL/min/mg.

`COc1ccccc1Oc1ccccc1CN1CCC2(CC1)CCN(C(=O)c1cc[n+]([O-])cc1)CC2` [Example 4, 3-[2-(2-methoxyphenoxy)benzyl]-9-(1-oxidoisonicotinoyl)-3,9-diazaspiro[5.5]undecane]: in series [1], the half-maximal inhibitory concentration (IC50) stood at 117 nM. Also, in series [2], the microsomal CLint at 2.5 μM was under 10 µL/min/mg.

On to `COc1ccccc1Oc1ccccc1CN1CCC2(CC1)CCN(C(=O)c1ccc[n+]([O-])c1)CC2` [Example 5, 3-[2-(2-methoxyphenoxy)benzyl]-9-[(1-oxidopyridin-3-yl)carbonyl]-3,9-diazaspiro[5.5]undecane], for which the half-inhibitory concentration (IC50) in series [1] worked out at 268 nM. The microsomal CLint at 2.5 μM in series [2] was under 10 µL/min/mg.

Turning to `COc1ccccc1Oc1cccc(CN2CCC3(CC2)CCN(C(=O)c2ccc[n+]([O-])c2)CC3)c1` [Example 8, 3-[3-(2-methoxyphenoxy)benzyl]-9-[(1-oxidopyridin-3-yl)carbonyl]-3,9-diazaspiro[5.5]undecane], the IC50 in series [1] stood at 207 nM. The microsomal CLint at 2.5 μM in series [2] was under 10 µL/min/mg.

For `COc1ccccc1Oc1ccccc1CN1CCC2(CC1)CCN(C(=O)c1ccncc1)CC2` [X, 3-isonicotinoyl-9-[2-(2-methoxyphenoxy)benzyl]-3,9-diazaspiro[5.5]undecane, reference compound], the microsomal CLint at 2.5 μM in series [2] came to 89 µL/min/mg.

Turning to `COc1ccccc1Oc1cccc(CN2CCC3(CC2)CCN(C(=O)c2ccncc2)CC3)c1` [Y, 3-isonicotinoyl-9-[3-(2-methoxyphenoxy)benzyl]-3,9-diazaspiro[5,5]undecane, reference compound], the microsomal CLint at 2.5 μM in series [2] is 183 µL/min/mg.

The term IC50 denotes the point on the concentration scale where inhibition reaches its midpoint.
